Measurements: US3963756A, “Derivatives of 6-methyl-2H-pyran-2,4(3H)-dione” (Zaidan Hojin Biseibutsu Kagaku Kenkyu Kai, priority 1972, dated 1976)

Key:
Tyrosine Hydroxylase = target: T1, Tyrosine Hydroxylase (Bos taurus, UniProt P17289); assay: Inhibition of tyrosine hydroxylase (TH); format: biochemical; conditions: for inhibition at 100 µg/mL: 100 mcg/cc; for inhibition at 200 µg/mL: 200 mcg/cc
T1 sequence (P17289 1-491): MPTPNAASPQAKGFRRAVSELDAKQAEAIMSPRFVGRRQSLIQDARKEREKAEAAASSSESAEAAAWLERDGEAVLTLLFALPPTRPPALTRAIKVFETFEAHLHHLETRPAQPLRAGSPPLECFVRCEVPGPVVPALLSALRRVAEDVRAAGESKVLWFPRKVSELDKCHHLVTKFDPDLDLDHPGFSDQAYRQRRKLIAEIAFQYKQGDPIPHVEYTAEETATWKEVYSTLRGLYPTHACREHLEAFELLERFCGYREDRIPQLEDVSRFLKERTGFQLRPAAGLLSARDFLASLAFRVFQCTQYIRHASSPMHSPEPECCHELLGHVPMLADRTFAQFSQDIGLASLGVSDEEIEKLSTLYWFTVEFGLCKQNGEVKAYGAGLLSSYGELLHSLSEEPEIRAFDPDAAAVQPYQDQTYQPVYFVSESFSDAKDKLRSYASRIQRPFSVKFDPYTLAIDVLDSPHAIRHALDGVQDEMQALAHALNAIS
Text: (§1) The new compounds of the present invention have been examined for their biological activities, and their inhibition to tyrosine hydroxylase and dopamine β-hydroxylase are summarized below in Table 2. The details of the test methods used and the close relationship and reliable correlation of biological activities between in vitro and in vivo test results are well documented in the literature, e.g. J. Antibiot. 23: 514 (1970); Biochem. Pharmacol., 19: 35 (1970); and J. Am. Chem. Soc. 93: 1285 (1971). […] The effects of this compound on tyrosine hydroxylase and dopamine β-hydroxylase were also tested by the methods described in the Journal of Antibiotics 23:514 (1970) and Biochem. Pharmacol. 19:35 (1970), respectively.
(§2) The chemical structure of the products [I], solvent for hydrogenation and solvent for recrystallization are summarised in Table 1, and the yields of the products [I] are also shown in Table 1 together with their melting points, elemental analysis data, Inhibition (%) of tyrosine hydroxylase (TH) and Inhibition (%) to dopamine β-hydroxylase (DH) at different concentrations of the products [I] of 100 mcg/cc and 200 mcg/cc.

Dopamine β-Hydroxylase = target: T2, Dopamine β-Hydroxylase (Bos taurus, UniProt P15101); assay: Inhibition of dopamine β-hydroxylase (DH); format: biochemical; conditions: 200 mcg/cc
T2 sequence (P15101 1-610): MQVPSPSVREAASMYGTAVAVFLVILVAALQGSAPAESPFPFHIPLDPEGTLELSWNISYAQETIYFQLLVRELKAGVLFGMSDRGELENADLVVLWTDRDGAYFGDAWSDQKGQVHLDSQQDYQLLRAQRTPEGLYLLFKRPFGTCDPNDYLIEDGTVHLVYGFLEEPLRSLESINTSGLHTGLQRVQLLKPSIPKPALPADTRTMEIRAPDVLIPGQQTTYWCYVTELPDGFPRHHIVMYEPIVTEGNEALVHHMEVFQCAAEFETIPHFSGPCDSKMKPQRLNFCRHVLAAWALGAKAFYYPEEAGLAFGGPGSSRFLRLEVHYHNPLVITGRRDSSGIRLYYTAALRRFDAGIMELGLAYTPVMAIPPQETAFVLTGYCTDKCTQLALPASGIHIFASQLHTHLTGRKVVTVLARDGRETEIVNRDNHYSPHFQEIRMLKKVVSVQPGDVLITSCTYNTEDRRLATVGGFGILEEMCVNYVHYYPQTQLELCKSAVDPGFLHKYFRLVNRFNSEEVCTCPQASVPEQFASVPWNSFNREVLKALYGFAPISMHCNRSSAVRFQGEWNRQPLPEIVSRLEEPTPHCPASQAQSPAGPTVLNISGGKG
Text: as §1, §2

[1] = Lowering of blood pressure (general statements); set-up: species or system mammals; conditions: in vivo

| SMILES | inhibition at 100 µg/mL (Tyrosine Hydroxylase) [%] | inhibition at 200 µg/mL (Dopamine β-Hydroxylase) [%] | inhibition at 200 µg/mL (Tyrosine Hydroxylase) [%] | blood pressure reducing (hypotensive) activity, in words [1] |
| --- | --- | --- | --- | --- |
| COc1ccccc1CCC(=O)C1C(=O)C=C(C)OC1=O (stereo not shown) [Example 18] | 32 | 98.3 | – | – |
| CC1=CC(=O)C(C(=O)CCc2ccco2)C(=O)O1 (stereo not shown) [Example 24, 3-[3-(2-furyl)propanoyl]-6-methyl-2H-pyran-2,4(3H)-dione] | 44.7 | 60.3 | 45.5 | – |
| CC1=CC(=O)C(C(=O)CCc2cc(Cl)cc(Cl)c2O)C(=O)O1 (stereo not shown) [Example 34] | 53.6 | 82.3 | 69.3 | – |
| CC1=CC(=O)C(C(=O)CCCCc2ccccc2)C(=O)O1 (stereo not shown) [Example 12] | 33.7 | 85.8 | – | – |
| CCOc1cc(CCC(=O)C2C(=O)C=C(C)OC2=O)ccc1O (stereo not shown) [Example 22] | 22.7 | 61.5 | 24.4 | – |
| COc1cccc(CCC(=O)C2C(=O)C=C(C)OC2=O)c1O (stereo not shown) [Example 15] | 20.9 | – | 29.9 | – |
| CC1=CC(=O)C(C(=O)CCc2cccs2)C(=O)O1 (stereo not shown) [Example 38] | 52.3 | 30.3 | – | – |
| COc1cccc(CCC(=O)C2C(=O)C=C(C)OC2=O)c1OC (stereo not shown) [Example 21] | 39 | 74.7 | – | – |
| CC1=CC(=O)C(C(=O)CCc2ccccc2O)C(=O)O1 (stereo not shown) [Example 13] | 44.4 | 52.5 | 59.5 | – |
| CC1=CC(=O)C(C(=O)CCc2c(O)ccc3ccccc23)C(=O)O1 (stereo not shown) [Example 37] | 41.8 | 44.7 | 57.2 | – |
| COc1ccc(CCC(=O)C2C(=O)C=C(C)OC2=O)c(OC)c1 (stereo not shown) [Example 27] | 20 | 44.9 | 26 | – |
| CC1=CC(=O)C(C(=O)CCc2c(C)cc(C)cc2C)C(=O)O1 (stereo not shown) [Example 23] | 8.7 | 28.9 | – | – |
| COc1ccc(CCC(=O)C2C(=O)C=C(C)OC2=O)cc1OC (stereo not shown) [3-(3,4-dimethoxyhydrocinnamoyl)-6-methyl-2H-pyran-2,4(3H)-dione, reference compound] | 61.3 | 32.5 | 72.5 | active in reducing blood pressure |
| CC1=CC(=O)C(C(=O)CCc2ccc3c(c2)OCO3)C(=O)O1 (stereo not shown) [Example 3, 3-(3,4-methylenedioxyhydrocinnamoyl)-6-methyl-2H-pyran-2,4(3H)-dione] | 13.7 | 86.7 | 18.5 | – |
| COc1cc(CCC(=O)C2C(=O)C=C(C)OC2=O)cc(OC)c1O (stereo not shown) [Example 35] | 45.8 | 43.6 | – | – |
| CC1=CC(=O)C(C(=O)CCc2cccc3ccccc23)C(=O)O1 (stereo not shown) [Example 36] | 34.8 | 56.2 | – | – |
| CC1=CC(=O)C(C(=O)CCc2ccc(C)o2)C(=O)O1 (stereo not shown) [Example 30] | 23.5 | 100 | – | – |
| CC1=CC(=O)C(C(=O)CCc2ccc[nH]2)C(=O)O1 (stereo not shown) [Example 39] | 30.9 | 25.1 | – | – |

The next lines start with results.

| inhibition at 100 µg/mL (Tyrosine Hydroxylase) [%] | inhibition at 200 µg/mL (Dopamine β-Hydroxylase) [%] | inhibition at 200 µg/mL (Tyrosine Hydroxylase) [%] | SMILES | blood pressure reducing (hypotensive) activity, in words [1] |
| --- | --- | --- | --- | --- |
| 64.7 | 81.7 | 67.2 | CC1=CC(=O)C(C(=O)CCc2cccc(O)c2)C(=O)O1 (stereo not shown) [Example 4] | – |
| 81.4 | 77.5 | 84.5 | CC1=CC(=O)C(C(=O)CCc2ccc(C#N)cc2)C(=O)O1 (stereo not shown) [Example 8] | – |
| 16.8 | 94.5 | 25.5 | CC1=CC(=O)C(C(=O)CCc2ccc(C(C)C)cc2)C(=O)O1 (stereo not shown) [Example 20] | – |
| 12.7 | 95 | 26.5 | CC1=CC(=O)C(C(=O)CCc2cccc(Cl)c2)C(=O)O1 (stereo not shown) [Example 10] | – |
| 20.5 | 30.3 | – | CC1=CC(=O)C(C(=O)CCc2ccc(C(N)=O)cc2)C(=O)O1 (stereo not shown) [Example 33] | – |
| 14.6 | 29.6 | 26 | COc1cc(CCC(=O)C2C(=O)C=C(C)OC2=O)ccc1O (stereo not shown) [Example 19] | – |
| 29.8 | 100 | 29.1 | CC1=CC(=O)C(C(=O)CCc2ccc(Cl)cc2Cl)C(=O)O1 (stereo not shown) [Example 28] | – |
| 60.1 | 42 | – | CC1=CC(=O)C(C(=O)CCc2ccc(F)cc2)C(=O)O1 (stereo not shown) [Example 31] | – |
| 52.5 | 85 | 52.6 | CC1=CC(=O)C(C(=O)CCc2ccc(C)cc2)C(=O)O1 (stereo not shown) [Example 29, 3-(4-methylhydrocinnamoyl)-6-methyl-2H-pyran-2,4(3H)-dione] | – |
| 80.6 | 20.6 | 93.5 | CC1=CC(=O)C(C(=O)CCc2ccc(O)c(O)c2)C(=O)O1 (stereo not shown) [Example 9] | – |
| 80.8 | 67 | 93.9 | COc1ccc(CCC(=O)C2C(=O)C=C(C)OC2=O)cc1O (stereo not shown) [Example 2, 3-(3-hydroxy-4-methoxyhydrocinnamoyl)-6-methyl-2H-pyran-2,4(3H)-dione] | – |
| 40.7 | 35 | 47.9 | COc1ccc(CCC(=O)C2C(=O)C=C(C)OC2=O)cc1 (stereo not shown) [Example 1, 3-(4-methoxyhydrocinnamoyl)-6-methyl-2H-pyran-2,4(3H)-dione] | – |
| 32 | 83.5 | 34.9 | COc1cccc(CCC(=O)C2C(=O)C=C(C)OC2=O)c1 (stereo not shown) [Example 25] | – |
| 65.2 | 77.7 | 70.6 | CC1=CC(=O)C(C(=O)CCc2ccc(O)cc2)C(=O)O1 (stereo not shown) [Example 7] | – |
| 13 | 54.9 | 15 | COC(=O)c1ccc(CCC(=O)C2C(=O)C=C(C)OC2=O)cc1 (stereo not shown) [Example 14, 3-(4-methoxycarbonylhydrocinnamoyl)-6-methyl-2H-pyran-2,4(3H)-dione] | – |
| 54.6 | 90.4 | 61 | CC1=CC(=O)C(C(=O)CCc2ccc(Cl)c(Cl)c2)C(=O)O1 (stereo not shown) [Example 6] | – |
| 37.1 | 89.8 | 48.4 | CC1=CC(=O)C(C(=O)CCc2ccccc2Cl)C(=O)O1 (stereo not shown) [Example 17] | – |
| 66 | 84.4 | 64.8 | CC1=CC(=O)C(C(=O)CCc2ccc(Cl)cc2)C(=O)O1 (stereo not shown) [Example 5] | – |
| – | 6 | 10.1 | CCOc1ccc(CCC(=O)C2C(=O)C=C(C)OC2=O)cc1 (stereo not shown) [Example 11] | – |
| 23 | – | 26.1 | CC1=CC(=O)C(C(=O)CCc2ccc(N(C)C)cc2)C(=O)O1 (stereo not shown) [Example 16] | – |
| 11.3 | 97 | 19.8 | CC1=CC(=O)C(C(=O)CCc2cccc(Br)c2)C(=O)O1 (stereo not shown) [Example 26] | – |
| 50.4 | 88 | – | CC1=CC(=O)C(C(=O)CCc2ccc(C(F)(F)F)cc2)C(=O)O1 (stereo not shown) [Example 32] | – |
